# Tests used:
# Mixed Bacteria = assay: Inoculation test of preserved cream formulation with mixed bacteria, surviving organisms counted; type: cell-based; settings: control: IPBC 25 ppm, PhOH 0 ppm in cream
# Mixed Fungi = assay: Inoculation test of preserved cream formulation with mixed fungi, surviving organisms counted; type: cell-based; settings: control: IPBC 25 ppm, PhOH 0 ppm in cream
# Description: A batch of a cream formulation comprising an oil-in-water emulsion containing 7.5 wt % Crodex A (an emulsifying wax ex-Croda Chemicals), 5.0 wt % propylene glycol and 87.5 wt % sterile water was prepared using a homogenising mixer.
# Portions of the cream formulation were admixed with a preservative system comprising iodopropynyl butyl carbamate and phenoxyethanol at varying weight ratios of iodopropynyl butyl carbamate to phenoxyethanol. In each case the content of the iodopropynyl butyl carbamate in the cream formulation was kept constant at a level of 0.0025 wt % with respect of the total weight of the formulation.
# Each portion of the formulation was divided into two. One specimen was inoculated with 7.5×10^7 mixed bacteria per g of cream. The other specimen was inoculated with 2.4×10^6 mixed fungi per g of cream.
# For each specimen the number of surviving organisms was determined at 0 hours, […] and 72 hours after inoculation.
substance,measurement,setting,value
iodopropynyl butyl carbamate [IPBC],"organisms surviving, Mixed Bacteria, 0 Hours",Mixed Bacteria; 0 Hours,TNTC
same,"organisms surviving, Mixed Bacteria, 24 Hours",Mixed Bacteria; 24 Hours,1.8 × 10^6
same,"organisms surviving, Mixed Bacteria, 72 Hours",Mixed Bacteria; 72 Hours,2.9 × 10^5
same,"organisms surviving, Mixed Fungi, 0 Hours",Mixed Fungi; 0 Hours,8 × 10^5
same,"organisms surviving, Mixed Fungi, 24 Hours",Mixed Fungi; 24 Hours,1.2 × 10^5
same,"organisms surviving, Mixed Fungi, 72 Hours",Mixed Fungi; 72 Hours,5.2 × 10^4

# — patent US20010043936A1, “CHEMICAL COMPOSITION” (priority 1997, published 2001)
